Reference: ChEMBL document CHEMBL1201862, “PubChem BioAssay data set” (2004)
Active and inactive are the calls of the source.

Columns and labels:
Type in all cases: functional
[1] = biological target: Calcium/calmodulin-dependent protein kinase type II subunit gamma (Homo sapiens, UniProt Q13555)
[2] = biological target: Proto-oncogene tyrosine-protein kinase ROS (Homo sapiens, UniProt P08922);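 further: ROS1 tested as one member of a kinome-wide kinase panel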
[3] = biological target: Non-receptor tyrosine-protein kinase TYK2 (Homo sapiens, UniProt P29597)
Non-receptor tyrosine-protein kinase TYK2, sequence (P29597 whole entry): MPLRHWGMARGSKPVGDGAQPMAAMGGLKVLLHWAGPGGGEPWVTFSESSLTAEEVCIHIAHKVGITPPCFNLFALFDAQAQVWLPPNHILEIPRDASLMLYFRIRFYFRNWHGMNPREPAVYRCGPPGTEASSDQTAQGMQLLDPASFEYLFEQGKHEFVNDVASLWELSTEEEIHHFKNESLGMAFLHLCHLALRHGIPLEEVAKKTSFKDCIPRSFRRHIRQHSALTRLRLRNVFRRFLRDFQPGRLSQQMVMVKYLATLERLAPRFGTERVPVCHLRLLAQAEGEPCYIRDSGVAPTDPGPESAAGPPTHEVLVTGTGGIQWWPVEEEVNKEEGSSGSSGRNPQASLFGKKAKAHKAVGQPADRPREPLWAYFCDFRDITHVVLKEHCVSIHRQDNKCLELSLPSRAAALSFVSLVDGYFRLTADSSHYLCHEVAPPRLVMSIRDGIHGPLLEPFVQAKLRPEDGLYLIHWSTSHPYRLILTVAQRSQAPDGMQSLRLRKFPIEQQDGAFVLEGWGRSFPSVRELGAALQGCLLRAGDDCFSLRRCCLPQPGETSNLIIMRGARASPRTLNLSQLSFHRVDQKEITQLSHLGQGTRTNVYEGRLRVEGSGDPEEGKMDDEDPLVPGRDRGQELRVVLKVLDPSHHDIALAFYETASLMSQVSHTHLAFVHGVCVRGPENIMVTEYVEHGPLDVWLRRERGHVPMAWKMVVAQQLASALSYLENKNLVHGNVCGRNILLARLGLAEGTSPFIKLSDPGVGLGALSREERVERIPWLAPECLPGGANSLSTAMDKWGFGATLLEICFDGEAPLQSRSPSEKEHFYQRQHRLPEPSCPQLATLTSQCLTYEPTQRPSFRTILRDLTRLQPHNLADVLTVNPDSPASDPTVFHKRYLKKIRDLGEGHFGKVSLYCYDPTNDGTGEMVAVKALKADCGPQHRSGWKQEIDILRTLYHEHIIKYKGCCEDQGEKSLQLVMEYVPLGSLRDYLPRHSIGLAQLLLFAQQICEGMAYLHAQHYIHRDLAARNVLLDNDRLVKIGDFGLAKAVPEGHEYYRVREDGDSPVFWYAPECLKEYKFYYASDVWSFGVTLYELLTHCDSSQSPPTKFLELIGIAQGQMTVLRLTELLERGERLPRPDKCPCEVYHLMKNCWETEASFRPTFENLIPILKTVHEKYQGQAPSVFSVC

[4] = biological target: Serine/threonine-protein kinase Nek4 (Homo sapiens, UniProt P51957)
Serine/threonine-protein kinase Nek4, sequence (P51957 whole entry): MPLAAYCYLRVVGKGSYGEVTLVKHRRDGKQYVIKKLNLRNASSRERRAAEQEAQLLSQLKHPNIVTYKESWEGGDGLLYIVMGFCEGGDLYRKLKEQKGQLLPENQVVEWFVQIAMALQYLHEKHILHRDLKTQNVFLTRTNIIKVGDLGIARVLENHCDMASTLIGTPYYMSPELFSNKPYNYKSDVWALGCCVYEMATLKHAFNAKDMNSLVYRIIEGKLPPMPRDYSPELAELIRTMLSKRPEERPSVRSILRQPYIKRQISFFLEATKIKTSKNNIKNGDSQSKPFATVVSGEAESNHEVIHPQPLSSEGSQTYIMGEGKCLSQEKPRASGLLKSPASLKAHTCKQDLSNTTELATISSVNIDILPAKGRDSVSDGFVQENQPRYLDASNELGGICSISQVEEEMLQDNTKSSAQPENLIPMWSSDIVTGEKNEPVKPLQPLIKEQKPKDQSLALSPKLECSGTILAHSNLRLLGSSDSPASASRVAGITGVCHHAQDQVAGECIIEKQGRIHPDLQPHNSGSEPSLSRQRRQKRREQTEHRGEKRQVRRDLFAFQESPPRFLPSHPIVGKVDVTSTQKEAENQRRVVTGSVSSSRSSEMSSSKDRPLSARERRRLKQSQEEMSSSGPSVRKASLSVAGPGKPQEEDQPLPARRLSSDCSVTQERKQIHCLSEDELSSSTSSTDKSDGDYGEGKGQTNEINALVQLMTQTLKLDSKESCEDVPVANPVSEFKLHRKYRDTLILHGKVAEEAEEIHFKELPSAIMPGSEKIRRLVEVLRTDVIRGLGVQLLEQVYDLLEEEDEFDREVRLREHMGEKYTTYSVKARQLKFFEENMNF

[5] = biological target: Vascular endothelial growth factor receptor 3 (Homo sapiens, UniProt P35916);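 further: value from a kinome-wide profiling panel, with FLT4 as the panel member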
Vascular endothelial growth factor receptor 3, sequence (P35916 whole entry): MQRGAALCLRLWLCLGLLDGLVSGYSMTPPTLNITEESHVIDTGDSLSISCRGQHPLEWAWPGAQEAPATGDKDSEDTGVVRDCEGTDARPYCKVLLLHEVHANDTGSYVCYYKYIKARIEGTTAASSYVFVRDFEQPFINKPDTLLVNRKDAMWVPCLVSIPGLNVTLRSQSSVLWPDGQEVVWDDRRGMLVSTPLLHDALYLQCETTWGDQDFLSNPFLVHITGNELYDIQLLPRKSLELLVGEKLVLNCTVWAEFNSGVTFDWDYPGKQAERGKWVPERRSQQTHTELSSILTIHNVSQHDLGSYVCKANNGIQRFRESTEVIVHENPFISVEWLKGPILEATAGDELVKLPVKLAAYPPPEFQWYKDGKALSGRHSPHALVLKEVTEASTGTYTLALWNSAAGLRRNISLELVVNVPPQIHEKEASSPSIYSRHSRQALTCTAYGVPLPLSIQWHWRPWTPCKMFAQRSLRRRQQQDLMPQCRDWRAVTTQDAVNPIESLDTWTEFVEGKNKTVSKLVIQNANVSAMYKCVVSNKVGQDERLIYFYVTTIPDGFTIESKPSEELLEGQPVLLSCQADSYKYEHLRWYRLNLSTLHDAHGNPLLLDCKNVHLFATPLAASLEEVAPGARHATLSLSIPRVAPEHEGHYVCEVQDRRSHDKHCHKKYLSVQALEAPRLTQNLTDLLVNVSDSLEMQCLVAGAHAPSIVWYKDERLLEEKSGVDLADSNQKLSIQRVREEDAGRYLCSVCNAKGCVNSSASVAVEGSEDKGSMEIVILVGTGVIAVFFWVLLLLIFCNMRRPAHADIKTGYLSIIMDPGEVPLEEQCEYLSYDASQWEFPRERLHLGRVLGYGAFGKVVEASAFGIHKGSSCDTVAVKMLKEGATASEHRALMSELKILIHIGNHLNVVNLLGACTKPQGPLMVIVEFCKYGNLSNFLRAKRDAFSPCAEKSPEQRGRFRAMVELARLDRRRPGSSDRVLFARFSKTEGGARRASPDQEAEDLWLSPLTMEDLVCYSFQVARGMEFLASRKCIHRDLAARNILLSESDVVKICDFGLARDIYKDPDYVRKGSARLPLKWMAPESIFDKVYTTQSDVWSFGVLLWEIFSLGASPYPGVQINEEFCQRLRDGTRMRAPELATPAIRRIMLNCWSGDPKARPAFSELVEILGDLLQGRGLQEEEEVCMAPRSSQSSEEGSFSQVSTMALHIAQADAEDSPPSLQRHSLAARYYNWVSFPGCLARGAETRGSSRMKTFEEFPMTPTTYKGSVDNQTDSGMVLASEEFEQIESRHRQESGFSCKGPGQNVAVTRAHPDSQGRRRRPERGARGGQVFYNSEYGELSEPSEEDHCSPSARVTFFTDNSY

Protein RecA = biological target: T1, Protein RecA (Mycobacterium tuberculosis, UniProt P9WHJ3); assay: Fluorescence Cell-Free Homogeneous Dose Retest to Identify Inhibitors of RecA-Intein Splicing Activity. [Related pubchem assays (depositor defined):AID2097, AID2223, AID489010, AID492950]
T1 sequence (P9WHJ3 whole entry): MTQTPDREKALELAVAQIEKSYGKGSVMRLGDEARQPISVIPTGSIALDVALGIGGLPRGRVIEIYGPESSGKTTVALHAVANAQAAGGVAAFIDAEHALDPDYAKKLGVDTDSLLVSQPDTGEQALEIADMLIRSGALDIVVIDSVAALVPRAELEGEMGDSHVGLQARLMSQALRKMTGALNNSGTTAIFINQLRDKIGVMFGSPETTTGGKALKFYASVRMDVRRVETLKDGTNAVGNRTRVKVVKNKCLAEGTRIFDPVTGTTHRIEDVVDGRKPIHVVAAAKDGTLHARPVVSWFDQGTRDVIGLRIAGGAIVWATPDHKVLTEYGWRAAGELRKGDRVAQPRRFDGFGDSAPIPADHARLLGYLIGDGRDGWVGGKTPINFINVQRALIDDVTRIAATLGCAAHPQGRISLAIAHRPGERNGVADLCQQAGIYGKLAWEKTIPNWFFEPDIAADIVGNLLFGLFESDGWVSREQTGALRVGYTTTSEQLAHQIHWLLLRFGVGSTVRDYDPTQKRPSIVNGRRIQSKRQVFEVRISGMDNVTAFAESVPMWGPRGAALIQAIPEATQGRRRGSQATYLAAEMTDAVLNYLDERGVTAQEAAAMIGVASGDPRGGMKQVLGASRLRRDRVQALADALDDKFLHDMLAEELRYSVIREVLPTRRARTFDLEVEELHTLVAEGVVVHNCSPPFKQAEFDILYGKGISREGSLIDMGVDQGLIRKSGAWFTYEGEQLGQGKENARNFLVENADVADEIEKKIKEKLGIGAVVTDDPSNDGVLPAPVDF

Calcium/calmodulin-dependent protein kinase type II subunit gamma, sequence (Q13555 whole entry): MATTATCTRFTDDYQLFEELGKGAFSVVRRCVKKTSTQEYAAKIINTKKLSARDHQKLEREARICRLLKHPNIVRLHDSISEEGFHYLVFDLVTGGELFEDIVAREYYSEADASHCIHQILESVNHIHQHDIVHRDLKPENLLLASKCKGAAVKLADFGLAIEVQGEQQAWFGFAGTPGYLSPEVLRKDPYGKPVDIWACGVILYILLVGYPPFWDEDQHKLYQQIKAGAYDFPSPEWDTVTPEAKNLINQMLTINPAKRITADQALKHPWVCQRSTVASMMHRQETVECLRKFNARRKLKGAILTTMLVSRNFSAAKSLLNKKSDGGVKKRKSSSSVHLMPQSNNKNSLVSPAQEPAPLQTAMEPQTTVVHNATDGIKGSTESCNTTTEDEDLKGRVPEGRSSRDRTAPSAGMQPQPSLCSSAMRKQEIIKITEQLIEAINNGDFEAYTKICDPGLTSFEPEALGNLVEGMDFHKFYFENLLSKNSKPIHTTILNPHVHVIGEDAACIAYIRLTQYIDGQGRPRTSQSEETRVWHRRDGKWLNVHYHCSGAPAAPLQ

| SMILES | Ki [1] | pKi [1] | Ki [2] | Ki [3] | Ki [4] | Ki [5] | EC50 (Protein RecA) |
| --- | --- | --- | --- | --- | --- | --- | --- |
| CN1CCC(c2c(O)cc(O)c3c(=O)cc(-c4ccccc4Cl)oc23)C(O)C1 (configuration not stated) | 1 µM (active) | 6 | 0.251 µM (active) | > 2 µM (inactive) | > 6.31 µM (inactive) | > 6.31 µM (inactive) | – |
| Cc1ccc(NC2=C(NCCO)C(=O)c3ccccc3C2=O)cc1 | – | – | – | – | – | – | 11.7 µM (active) |
